The source of these data is patent publication US6384045B1, “Tricyclic and tetracyclic pyrones” (Kansas State University Research Foundation, priority 1997, dated 2002).

Molecules are shown by their SMILES. “Also recorded” adds a separate entry of the source.

For data set [1], the target named is acetylcholinesterase (AChE) (UniProt O42275). In kind it is biochemical, electric eel; fetal bovine serum. The conditions noted are these: read-out: AChE inhibition constant Ki ± std. error; 30° C., pH 8.0. How it is done: Acetylcholinesterase Assay and Inhibition Kinetics: Tricyclic pyrones of this invention were tested for inhibition of AChE. […] Reactions were carried out at 30° C. in 0.1 M sodium phosphate buffer at pH 8.0 in the presence of […] and 3.3×10^−4 M 3-carboxy-4-nitrophenyl disulfide. Aliquots of incubating mixtures containing enzyme alone, or enzyme in the presence of each carbamate, were withdrawn at selected time intervals and assayed for enzyme activity in order to obtain kinetic data. From the kinetic data, inhibition and bimolecular rate constants were calculated by the equation: [formula]
Sequence of acetylcholinesterase (AChE) (O42275 whole entry): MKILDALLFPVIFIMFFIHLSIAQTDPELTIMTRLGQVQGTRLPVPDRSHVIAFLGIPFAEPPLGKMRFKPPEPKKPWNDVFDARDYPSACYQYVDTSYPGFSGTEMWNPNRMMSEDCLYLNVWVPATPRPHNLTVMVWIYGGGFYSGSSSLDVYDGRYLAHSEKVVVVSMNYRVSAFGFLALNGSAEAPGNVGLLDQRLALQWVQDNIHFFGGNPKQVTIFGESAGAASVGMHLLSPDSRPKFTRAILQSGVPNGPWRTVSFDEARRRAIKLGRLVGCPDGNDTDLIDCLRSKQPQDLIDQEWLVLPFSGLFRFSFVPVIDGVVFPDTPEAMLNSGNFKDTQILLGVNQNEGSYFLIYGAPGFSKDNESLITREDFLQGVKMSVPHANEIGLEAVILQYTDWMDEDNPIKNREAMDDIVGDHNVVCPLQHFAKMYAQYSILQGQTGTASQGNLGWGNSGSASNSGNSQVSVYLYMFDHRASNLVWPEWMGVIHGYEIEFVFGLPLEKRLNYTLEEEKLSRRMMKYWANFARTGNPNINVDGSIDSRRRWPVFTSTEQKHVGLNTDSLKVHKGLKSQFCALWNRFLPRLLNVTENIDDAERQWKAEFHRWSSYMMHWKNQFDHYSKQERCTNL
in which kapp is the pseudo-first-order rate constant.

Another data set relates to L1210 leukemic cells. Nature of the data set: Inhibition of other macromolecule synthesis (RNA and protein synthesis). In kind it is cell-based.
Data set [2] has as its system L1210 lymphoblastic leukemia cells. Nature of the data set: Inhibition of L1210 tumor cell growth in vitro (Coulter counter). It is filed as cell-based, Murine. The conditions noted are these: for inhibition at 50 µM: 3 and 4 days in culture, read-out: inhibition of L1210 cell growth (% reduction of control cell numbers); for reduction of L1210 cell numbers vs control: 6.25 μM. The method, then: Cells were plated at an initial density of 1×10^4 cells/0.5 ml/well in RPMI 1640 medium, containing 7.5% fortified bovine calf serum, and grown at 37° C. for 4 days in a humidified incubator in 5% CO2 in air. Cells were incubated in the presence or absence (^•, control) of 50 μM 3A (▪), 2D & 2E (□),3D & 3E (▴), 2B & 2C (Δ) 2A (♦), 3B & 3C (⋄), or 10 μM CPT (∘) and their density was monitored in triplicate every 24 h using a Coulter counter. Cells numbers are plotted on a logarithmic scale.
(§1) All solutions of tricyclic pyrone analogs were dissolved and diluted in 100% ethanol (ETOH), whereas CPT (Sigma Chemical Co., St. Louis, Mo.) solutions were prepared in 100% dimethyl sulfoxide (DMSO). Murine L1210 lymphoblastic leukemia cells, obtained from the American Type Culture Collection (Rockville, Md.), were maintained in continuous exponential growth by twice-a-week passage in RPMI 1640 medium supplemented with 7.5% fortified bovine calf serum (HyClone Laboratories, Inc., Logan, Utah). The cultures were incubated at 37° C. in a humidified atmosphere containing 5% CO2. All drugs were supplemented to the culture medium in 1- or 2 μl aliquots. The concentration of vehicle in the final incubation volume never exceeded 0.2-0.4%. […] Control cells incubated in the absence of drugs were similarly treated with vehicle only and, in every experiment, all incubates received the same volume of solvent.
For tumor cell growth, L1210 cells were resuspended in fresh serum-containing RPMI 1640 medium, plated at an initial density of 1×10^4 cells/0.5 ml, and incubated in 48-well Costar cell culture plates (Costar, Cambridge, Mass.). Cells were grown for 4 days in the presence or absence of drugs and their density was monitored every 24 h using a Coulter counter (Coulter Electronics, Ltd., Luton Beds, England). Data of all in vitro experiments were analyzed using Student's t-test with the level of significance set at P<0.05.

Data set [3] has the same test system. Nature of the data set: Inhibition of DNA synthesis (3H-thymidine incorporation) in L1210 cells in vitro. It is filed as cell-based, Murine. The conditions noted are these: for IC50: read-out: concentration that inhibits DNA synthesis by 50% (IC50). How it is done: FIG. 1 illustrates a comparison of the effects of four new tricyclic pyrone derivatives and CPT on DNA synthesis in L1210 cells in vitro. About 2.53×10^6 cells suspended in 0.5 ml of RPMI 1640 medium were incubated at 37° C. for 90 minutes in the presence or absence (control) of the indicated concentrations of drugs. The cells were then pulse-labeled for an additional 30 minutes to determine the rate of ^3H-thymidine incorporation into DNA. DNA synthesis in vehicle-treated control cells was 43,956±4,569 cpm (100±11%). The blank value (1,241±99 cpm) for cells pulse-labeled for 0 minutes with 1 μCi of ^3H-thymidine has been subtracted from the results. Bars: means±SD (n=3).
as §1
For DNA synthesis, L1210 cells were resuspended in fresh serum-free RPMI 1640 medium at a density of about 2.5×10^6 cells/0.5 ml. The cells were incubated at 37° C. for 90 min in the presence or absence of drugs and then pulse-labeled for an additional 30 min with 1 μCi of [methyl-^3H]thymidine (51 Ci/mmol; Amersham Corp., Arlington Heights, Ill.). The incubations were terminated by the addition of 0.5 ml of 10% trichloroacetic acid (TCA). After holding on ice for 15 min, the acid-insoluble material was recovered over Whatman GF/A glass microfibre filters and washed thrice with 2 ml of 5% TCA and twice with 2 ml of 100% EtOH. After drying the filters, the radioactivity bound to the acid-precipitable material was determined by liquid scintillation counting in 10 ml of Bio-Safe NA (Research Products International Corp., Mount Prospect, Ill.).

Data set [4] relates to T1, liver and intestinal microsomal ACAT.
T1 construct: other: 100 μM; other: 44 nM; other: 50 μM
Description: Inhibition of liver and intestinal microsomal ACAT activity. In kind it is biochemical. To be noted: using literature IC50 of pyripyropene as standard. How it is done:
. Microsomes were prepared from liver and intestinal mucosal scrapings by sequential centrifugation and in vitro ACAT activity assays were done according to the method of Billheimer (Billheimer, J. T. (1985), “Cholesterol acyltransferase,” In Methods in Enzymology 111:286-293). Briefly, 100 μg microsomal protein, 22 μg BSA, and 52 nmol cholesterol and the synthesized drug in 5 μL DMSO were preincubated for 30 minutes at 37° C. in a phosphate buffer (200 μL total volume). After 30 minutes, 1 nmol [^14C]oleoyl-CoA was added as substrate and incubated for an additional 20 minutes. The reaction was stopped with the addition of 1 mL ethanol and lipids were extracted with hexane. Cholesteryl [^14C]oleate formation was quantified by thin-layer chromatography and data are expressed as percent inhibition of ACAT activity (pmol/μg protein per minute) compared to a control sample incubated with no drug. All samples were run in duplicate. […]

Data set [5] relates to MCF-7 human breast cancer cells. Description: Growth of MCF-7 human breast cancer cells. In kind it is cell-based.
Data set [6] concerns the target T2, tubulin protein from bovine brain (Bos taurus, UniProt P81947+Q6B856).
T2 construct: tubulin protein from bovine brain (2.5 mg/ml); purchased Cytoskeleton (Denver, Colo.); host or cells: bovine brain
Description: Polymerization of pure tubulin in a cell-free system. In kind it is biochemical. The conditions noted are these: 25 μM, 35° C., 20 min, 2.5 mg/ml tubulin. How it is done: In a final volume of 200 μl, a solution of 2.5 mg/ml tubulin protein from bovine brain, 80 mM PIPES buffer, pH 6.8, 1 mM MgCl2, 1 mM EGTA, 1 mM GTP, and 10% glycerol was incubated at 35° C. for 20 minutes in the presence or absence (control) of 25 μM of compound 2A. The absorbance of the solution at OD340 nm was measured to determine the rate of tubulin polymerization.
Tubulin is a labile protein, which is unstable below 80 mM PIPES, should not be exposed to pH values less than 6.8 or greater than 7.0, and will not polymerize in the presence of Ca^2+. GTP and Mg^2+ are necessary for tubulin nativity and glycerol stabilizes tubulin and lowers the initial concentration required to initiate polymerization.
The ability of 2A to alter the polymerization of pure tubulin in a cell-free system in vitro was analyzed using the assay kit purchased from Cytoskeleton (Denver, Colo.). The polymerization reaction contained, in a final volume of 200 μl, tubulin protein from bovine brain (2.5 mg/ml), 80 mM PIPES buffer, pH 6.8, 1 mM MgCl2, 1 mM EGTA, 1 mM GTP and 10% glycerol. […] Samples were incubated at 35° C. in quartz microcells and the rate of tubulin polymerization was followed over 20 min by measuring the increased absorbance of the solution at OD340nm, using a Shimadzu UV-160 spectrophotometer equipped with dual-beam optics and a thermostatically-controlled cell holder. […]

Data set [7] concerns EMT6 mammary carcinoma cells. Description: Growth of EMT6 mammary carcinoma cells. It is filed as cell-based.
The mark [8] stands for this setting: Mus musculus, L1210, 50 μM, 90 min + 30 min pulse.

T2 sequence (P81947 whole entry): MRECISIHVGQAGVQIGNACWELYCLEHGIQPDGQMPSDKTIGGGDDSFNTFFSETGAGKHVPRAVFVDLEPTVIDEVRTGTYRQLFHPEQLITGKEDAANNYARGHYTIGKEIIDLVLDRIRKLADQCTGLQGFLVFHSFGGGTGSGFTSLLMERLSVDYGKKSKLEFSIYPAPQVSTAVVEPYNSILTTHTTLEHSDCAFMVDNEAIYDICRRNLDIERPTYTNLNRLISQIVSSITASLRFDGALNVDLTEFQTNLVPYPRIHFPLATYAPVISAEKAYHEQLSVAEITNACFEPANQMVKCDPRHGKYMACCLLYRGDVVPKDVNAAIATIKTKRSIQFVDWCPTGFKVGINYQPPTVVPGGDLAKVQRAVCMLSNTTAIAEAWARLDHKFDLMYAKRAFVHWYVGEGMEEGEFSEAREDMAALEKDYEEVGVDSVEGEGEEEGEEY
T2 sequence (Q6B856 whole entry): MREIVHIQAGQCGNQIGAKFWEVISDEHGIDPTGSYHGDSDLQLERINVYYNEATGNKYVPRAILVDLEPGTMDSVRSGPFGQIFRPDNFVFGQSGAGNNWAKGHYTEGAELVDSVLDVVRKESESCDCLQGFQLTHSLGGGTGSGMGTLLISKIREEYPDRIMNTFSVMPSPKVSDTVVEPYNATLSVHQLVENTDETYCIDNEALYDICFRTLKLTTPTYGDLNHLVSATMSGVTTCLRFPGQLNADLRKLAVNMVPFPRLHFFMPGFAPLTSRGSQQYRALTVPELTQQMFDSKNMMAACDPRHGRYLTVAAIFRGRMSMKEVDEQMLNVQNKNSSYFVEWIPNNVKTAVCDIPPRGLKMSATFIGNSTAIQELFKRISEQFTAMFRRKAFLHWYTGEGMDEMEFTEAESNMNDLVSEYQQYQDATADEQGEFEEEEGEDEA

Turning to `COc1ccc(-c2cc3c(c(=O)o2)C=C2CCCCC2O3)cc1OC` (stereo not drawn) [Compound 3A, 3-(3,4-dimethoxyphenyl)-1H-5a,6,7,8,9-pentahydro-1-oxopyrano[4,3-b][1]benzopyran], the inhibitory constant (Ki) in data set [1] is 23 ± 3.5 µM. The “inhibition of macromolecule synthesis (RNA and protein synthesis)” value with L1210 leukemic cells is “more potent inhibitor of macromolecule synthesis than the 3-pyridyl substituted tricyclic pyrone 2A”. The inhibition at 50 µM in data set [2] (Mus musculus, L1210) lay in the range of 91 to 100%; in data set [3] (setting [8]), 79 to 91%. The IC50 was about 8.5 µM in [3] (Mus musculus, L1210, 2 h) and 63 µM in data set [4]. The inhibition at 25 µM in data set [3] (Mus musculus, L1210, 25 μM, 90 min + 30 min pulse) came to 62%.
Turning to `Cc1cc2c(c(=O)o1)C=C1CCCCC1O2` (stereo not drawn) [Compound 1A, 3-methyl-1H-5a,6,7,8,9-pentahydro-1-oxopyrano[4,3-b]-[i]benzopyran], in [1], the inhibitory constant (Ki) was 7 ± 1.2 µM. The inhibition at 50 µM in data set [3] (setting [8]) was 17 to 32%.
For the compound `O=c1oc(-c2cccnc2)cc2c1C=C1CCCCC1O2` (stereo not drawn) [Compound 2A, 3-(3-pyridyl)-1H-5a,6,7,8,9-pentahydro-1-oxopyrano[4,3-b][1]benzopyran], the “inhibition of growth of MCF-7 human breast cancer cells” value in data set [5] was “greater inhibitory effect than tricyclic pyrone 3A”. For the same compound, in data set [2] (1.56 μM, after 24 h), the “inhibition of tumor cell growth” value is given as “no effect”. In addition, in data set [2] (6.25 μM 2A mimics 0.78 μM CPT over 4 days), the “times less potent than CPT at inhibiting leukemic cell growth” value is recorded as “about 8 times”. Besides, the “reduction of L1210 cell numbers vs control” value in data set [2] (1 day) was determined as 28%; in data set [2] (2 days) it was 74%; in [2] (3 days) it was 90%; in [2] (4 days) it was 94%. For the same compound, the IC50 is 11 µM in data set [2] (Mus musculus, L1210, 24 h, 1 day); 2 µM in data set [2] (Mus musculus, L1210, 48 h, 2 days); 1.1 µM in [2] (Mus musculus, L1210, 72 h, 3 days); 1.1 µM in data set [2] (Mus musculus, L1210, 96 h, 4 days); about 8.5 µM in data set [3] (Mus musculus, L1210 cells, 2 h); 50 µM in data set [4]. Moreover, in data set [2] (Mus musculus, L1210, 1.56 μM, after 96 h), the inhibition at 1.56 µM is 83%. Moreover, the inhibition at 50 µM in [2] (Mus musculus, L1210) fell in the range of 91 to 100%; in data set [3] (setting [8]), 79 to 91%. Moreover, the “inhibition of tubulin polymerization (OD340nm)” value in data set [6] was “completely inhibit polymerization of pure tubulin; also recorded: completely inhibits tubulin polymerization; also recorded: no significant MT polymerization can be detected”. For the same compound, the “inhibition of growth of EMT6 mammary carcinoma cells” value in data set [7] was “greater inhibitory effect than tricyclic pyrone 3A”.
For the compound `O=c1cc(O)cc(-c2cccnc2)o1` [Compound 5B, 4-hydroxy-6-(3-pyridyl)-2-pyrone], the melting point lay in the range of 187 to 189 °C. The “inhibition of DNA synthesis in L1210 cells” value in data set [3] (25 μM, 90 min + 30 min pulse) was “no significant effects”. Besides, the “inhibition of DNA synthesis in L1210 cells” value in data set [3] (50 μM, 90 min + 30 min pulse, 50 µM) is reported as “no effect; also recorded: ineffective; also recorded: fail to inhibit DNA synthesis”.
